Laboratory results reported in PubChem BioAssay AID248 (DTP/NCI, 2004).
Inconclusive results and toxic doses are left out. Cut-off read from the data, not from the text of the source: active = T/C of 150% or more; inactive = T/C below 125%.

Test system: L1210 leukemia ip in BDF1 mice, survival T/C
Test: NCI In Vivo Anticancer Drug Screen. Data for tumor model L1210 Leukemia (intraperitoneal) in B6D2F1 (BDF1) mice
Conditions: endpoint: mean survival time, higher = longer survival
How it was run: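 Tumor was transplanted into mice, which were then dosed with test compound or vehicle alone. Survival was recorded for each group, and the treated figure was expressed relative to the control figure.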

[1] = dose: 400.0 mg/kg/injection, schedule: Q04DX002 (ip), vehicle: saline with Tween-80
[2] = dose: 100.0 mg/kg/injection, schedule: Q04DX003 (ip), vehicle: Klucel (hydroxypropylcellulose) (HPC)
[3] = dose: 200.0 mg/kg/injection, schedule: Q04DX003 (ip), vehicle: Klucel (hydroxypropylcellulose) (HPC)
[4] = dose: 400.0 mg/kg/injection, schedule: Q04DX003 (ip), vehicle: Klucel (hydroxypropylcellulose) (HPC)
[5] = dose: 100.0 mg/kg/injection, schedule: Q01DX001 (ip), vehicle: saline
[6] = dose: 200.0 mg/kg/injection, schedule: Q01DX001 (ip), vehicle: saline
[7] = dose: 400.0 mg/kg/injection, schedule: Q01DX001 (ip), vehicle: saline
[8] = dose: 100.0 mg/kg/injection, schedule: Q01DX001 (ip), vehicle: Klucel (hydroxypropylcellulose) (HPC)
[9] = dose: 100.0 mg/kg/injection, schedule: Q04DX003 (ip), vehicle: saline with Tween-80
[10] = dose: 200.0 mg/kg/injection, schedule: Q01DX001 (ip), vehicle: Klucel (hydroxypropylcellulose) (HPC)
[11] = dose: 200.0 mg/kg/injection, schedule: Q04DX003 (ip), vehicle: saline with Tween-80
[12] = dose: 400.0 mg/kg/injection, schedule: Q01DX001 (ip), vehicle: Klucel (hydroxypropylcellulose) (HPC)
[13] = dose: 400.0 mg/kg/injection, schedule: Q04DX003 (ip), vehicle: saline with Tween-80
[14] = dose: 100.0 mg/kg/injection, schedule: Q01DX009 (ip), vehicle: saline
[15] = dose: 100.0 mg/kg/injection, schedule: Q04DX003 (ip), vehicle: saline
[16] = dose: 200.0 mg/kg/injection, schedule: Q01DX009 (ip), vehicle: saline
[17] = dose: 200.0 mg/kg/injection, schedule: Q04DX003 (ip), vehicle: saline
[18] = dose: 400.0 mg/kg/injection, schedule: Q01DX009 (ip), vehicle: saline
[19] = dose: 400.0 mg/kg/injection, schedule: Q04DX003 (ip), vehicle: saline
[20] = dose: 100.0 mg/kg/injection, schedule: Q04DX002 (ip), vehicle: Klucel (hydroxypropylcellulose) (HPC)
[21] = dose: 200.0 mg/kg/injection, schedule: Q04DX002 (ip), vehicle: Klucel (hydroxypropylcellulose) (HPC)
[22] = dose: 400.0 mg/kg/injection, schedule: Q04DX002 (ip), vehicle: Klucel (hydroxypropylcellulose) (HPC)
[23] = dose: 50.0 mg/kg/injection, schedule: Q04DX002 (ip), vehicle: Klucel (hydroxypropylcellulose) (HPC)
[24] = dose: 50.0 mg/kg/injection, schedule: Q01DX009 (ip), vehicle: Klucel (hydroxypropylcellulose) (HPC)
[25] = dose: 100.0 mg/kg/injection, schedule: Q01DX009 (ip), vehicle: Klucel (hydroxypropylcellulose) (HPC)

Measured: T/C

CCCS(=O)(=O)N(CC)CC
inactive: dose: 100.0 mg/kg/injection, schedule: Q04DX002 (ip), vehicle: saline with Tween-80 97 % of control | dose: 200.0 mg/kg/injection, schedule: Q04DX002 (ip), vehicle: saline with Tween-80 101 % of control | [1] 87 % of control

O=C(c1ccc(Br)cc1)C1C(c2ccccc2)N1C1CCCCC1 (stereo not drawn)
inactive: [2] 98 % of control | [3] 96 % of control | [4] 93 % of control

CC(C)C1(NC(=O)C2C=C3c4cccc5[nH]cc(c45)CC3N(C)C2)OC2(O)C3CCCN3C(=O)C(Cc3ccccc3)N2C1=O (stereo not drawn) (tested in a mixture with another compound)
inactive: [5] 107 % of control | [6] 102 % of control | [7] 100 % of control

Cc1ccc(S(=O)(=O)NNC(=O)C2(C)CC2(C)C(=O)O)cc1 (stereo not drawn)
inactive: [8] 100 % of control | [2] 91 % of control | [9] 96 % of control | [10] 93 % of control | [3] 89 % of control | [11] 93 % of control | [12] 101 % of control | [4] 100 % of control | [13] 86 % of control

Cl/C(=C\c1ccccc1)c1ccccc1
inactive: dose: 25.0 mg/kg/injection, schedule: Q04DX003 (ip), vehicle: Klucel (hydroxypropylcellulose) (HPC) 96 % of control | dose: 50.0 mg/kg/injection, schedule: Q04DX003 (ip), vehicle: Klucel (hydroxypropylcellulose) (HPC) 95 % of control | [2] 96 % of control | [4] 101 % of control

CC(=O)Nc1c(C)cc(Cl)cc1Cl
inactive: dose: 25.6 mg/kg/injection, schedule: Q04DX002 (ip), vehicle: saline with Tween-80 95 % of control | dose: 64.0 mg/kg/injection, schedule: Q04DX002 (ip), vehicle: saline with Tween-80 95 % of control | dose: 100.0 mg/kg/injection, schedule: Q01DX009 (ip), vehicle: saline with Tween-80 91 % of control | [9] 91 % of control | dose: 160.0 mg/kg/injection, schedule: Q04DX002 (ip), vehicle: saline with Tween-80 95 % of control | dose: 200.0 mg/kg/injection, schedule: Q01DX009 (ip), vehicle: saline with Tween-80 89 % of control | [11] 95 % of control | dose: 400.0 mg/kg/injection, schedule: Q01DX009 (ip), vehicle: saline with Tween-80 96 % of control | [1] 98 % of control | [13] 98 % of control

CCOc1cc(S(N)(=O)=O)ccc1Cl
inactive: dose: 100.0 mg/kg/injection, schedule: Q01DX001 (ip), vehicle: saline with Tween-80 89 % of control | dose: 200.0 mg/kg/injection, schedule: Q01DX001 (ip), vehicle: saline with Tween-80 93 % of control | dose: 400.0 mg/kg/injection, schedule: Q01DX001 (ip), vehicle: saline with Tween-80 96 % of control

CC(=O)CC(=O)NCc1ccncc1
inactive: [14] 97 % of control | [15] 100 % of control | [16] 105 % of control | [17] 102 % of control | [18] 95 % of control | [19] 97 % of control

CC(=O)SCC(C)SC(C)=O (stereo not drawn)
inactive: dose: 12.5 mg/kg/injection, schedule: Q04DX002 (ip), vehicle: saline with Tween-80 93 % of control | dose: 25.0 mg/kg/injection, schedule: Q04DX002 (ip), vehicle: saline with Tween-80 98 % of control | dose: 50.0 mg/kg/injection, schedule: Q04DX002 (ip), vehicle: saline with Tween-80 93 % of control

CCOC(=O)C(C(=O)OCC)c1nc(=O)[nH]c(=O)[nH]1
inactive: dose: 100.0 mg/kg/injection, schedule: Q01DX Z (ip), vehicle: methylcellulose (MC) 97 % of control

CCCCCCCCCCCCCCCCCCNC(=O)N1CCC(C)CC1
inactive: [20] 97 % of control | [21] 100 % of control | [22] 97 % of control

COC1(OC)CC2C(=O)CCCC21OC(C)=O (stereo not drawn)
inactive: dose: 75.0 mg/kg/injection, schedule: Q04DX002 (ip), vehicle: saline 93 % of control | dose: 150.0 mg/kg/injection, schedule: Q04DX002 (ip), vehicle: saline 103 % of control | dose: 300.0 mg/kg/injection, schedule: Q04DX002 (ip), vehicle: saline 107 % of control

C=CCc1ccc(OCCOCCN(C)C2CCCCC2)c(OC)c1
inactive: [2] 90 % of control

COC(=O)C1C2CC3c4[nH]c5cc(OC)ccc5c4CCN3CC2CC(O)C1OC (stereo not drawn)
inactive: [23] 96 % of control | [20] 90 % of control

O=C(O)CCC1CCC(=O)OC1=O (stereo not drawn)
inactive: [14] 101 % of control | [15] 98 % of control | [16] 100 % of control | [17] 89 % of control | [18] 99 % of control | [19] 94 % of control

O=C1Cc2ccccc2N1C(=O)c1ccccc1
inactive: [23] 97 % of control | [20] 101 % of control | [21] 90 % of control

CCOP(=O)(CCCCN1C(=O)c2ccccc2C1=O)OCC
inactive: dose: 31.3 mg/kg/injection, schedule: Q01DX Z (ip), vehicle: saline 101 % of control | dose: 62.5 mg/kg/injection, schedule: Q01DX Z (ip), vehicle: saline 100 % of control | dose: 125.0 mg/kg/injection, schedule: Q01DX Z (ip), vehicle: saline 103 % of control | dose: 250.0 mg/kg/injection, schedule: Q01DX Z (ip), vehicle: saline 103 % of control | dose: 500.0 mg/kg/injection, schedule: Q01DX Z (ip), vehicle: saline 92 % of control

O=C1OCC/C1=C1/CCOC1
inactive: dose: 50.0 mg/kg/injection, schedule: Q01DX009 (ip), vehicle: saline 91 % of control | [14] 102 % of control

O=C(Nc1ccnc(=O)[nH]1)c1ccccc1
inactive: [8] 91 % of control | [10] 100 % of control | [12] 92 % of control

CC1(c2ccc3ccccc3c2)OC(=O)c2ccccc21 (stereo not drawn)
inactive: dose: 25.0 mg/kg/injection, schedule: Q01DX009 (ip), vehicle: saline with Tween-80 106 % of control | dose: 50.0 mg/kg/injection, schedule: Q01DX009 (ip), vehicle: saline with Tween-80 91 % of control

CCCCCCCCCCCCSCCCCSCCCCCCCCCCCC
inactive: [8] 93 % of control | [10] 89 % of control | [12] 91 % of control

COc1cc(Cc2cnc(N)nc2N)cc(OC)c1OC
inactive: dose: 50.0 mg/kg/injection, schedule: Q01DX001 (ip), vehicle: saline 101 % of control | [5] 92 % of control | [6] 100 % of control | [7] 97 % of control

O=C(O)Cn1cc(Cl)cc(Cl)c1=O
inactive: [20] 107 % of control | [21] 107 % of control | [22] 96 % of control

CN(C(=S)SSC(=S)N(C)c1ccccc1)c1ccccc1
inactive: dose: 25.0 mg/kg/injection, schedule: Q01DX009 (ip), vehicle: Klucel (hydroxypropylcellulose) (HPC) 96 % of control | [24] 101 % of control | [25] 101 % of control | [2] 105 % of control | [3] 89 % of control | [4] 93 % of control

CCCCCCCCCC(C)NC(=O)CCl (stereo not drawn)
inactive: [24] 87 % of control | [25] 97 % of control | dose: 200.0 mg/kg/injection, schedule: Q01DX009 (ip), vehicle: Klucel (hydroxypropylcellulose) (HPC) 90 % of control

N#C/C(N)=C(\C#N)N=C1CCCCC1=O
inactive: [20] 94 % of control | [21] 91 % of control | [22] 94 % of control

COc1ccc(CNCC(=O)O)cc1
inactive: [14] 100 % of control | [15] 96 % of control | [16] 100 % of control | [17] 98 % of control | [18] 105 % of control | [19] 96 % of control
